This series is described as follows: molar enthalpy of vaporization or sublimation. Particulars: 298.15 K; Crystal; Static calorimetry.

± gives the expanded uncertainty stated by the source.

As to `O=C1COc2ccccc21` [3-coumaranone], the molar enthalpy came to 20.5 ± 0.406 kcal/mol.

For the compound `O=C1Cc2ccccc2O1` [2-coumaranone], the molar enthalpy stood at 18.8 ± 0.406 kcal/mol.

The record behind these values is the NIST ThermoML archive (doi:10.1016/j.jct.2013.08.012).
